EP0363829A2, “Predicting sensitivity to injectable radio contrast media with histamine release test” (MILES INC., priority 1988, dated 1990)

What was measured:
basophils = type: cell-based, patients
Protocol: In the first step a histamine-protein conjugate is adsorbed to 94 polystyrene pegs simultaneously. This is accomplished by submerging the pegs into wells of a 96 well microtiter plate (referred to as the adsorption plate) that contain a solution of a histamine-BSA conjugate. Two microtiter wells contain only BSA and are used as negative controls. Following a one hour incubation period at room temperature, the pegs are removed and washed to remove non-adsorbed conjugate.
A second 96 well microtiter plate (referred to as the release plate) containing various dilutions of RCM or histamine is also prepared. […]
The relative concentration of the monoclonal antibody-horseradish peroxidase conjugate bound to the histamine-BSA conjugate on the polystyrene pegs is now estimated by immersing the pegs in a third microtiter plate (referred to as the chromogen plate) containing a chromogenic substrate for horseradish peroxidase, 2, 2′-azino-di-(3-ethyl-benzothiazoline)-6-sulfonic acid (ABTS®). […] Quantitative assessment of histamine release can be made if a Microtiter ELISA Reader is available. […]
The radio contrast media (RCM) to be tested as the allergen was diluted into 8 to 9 serial dilutions using Tris ACM or distilled water as diluent. […] The release plate was then ready for use. […]

[1] = parameters: species or system patients; conditions: human, in vivo
Protocol: A clinical study was performed to test the hypothesis that sensitivity (allergy) to radio contrast media could be predicted by the results of the histamine release test described herein. Histamine release from a blood sample from patients who would later be tested with a radio contrast media was measured. The results were later compared with the occurrence of an allergic reaction to the administration of the radio contrast media.

degree of histamine release (basophils): highest degree of histamine release
histamine release (basophils): significantly more histamine release
patients with an allergic reaction to the injection of the radio contrast media [1]: one
Structure (SMILES): CC(=O)Nc1c(I)c(NC(C)=O)c(I)c(C(=O)O)c1I [Hypaque]
